Measured values: the NIST ThermoML archive (doi:10.1016/j.jct.2013.05.024)
± gives the expanded uncertainty stated by the source.

Settings: 101.3 kPa, Liquid, Vibrating tube method

CCOC(=O)C(=O)OCC [diethyl ethanedioate]
Settings	mass density [kg/m3]
278.15 K	1095.94 ± 0.31
288.14 K	1084.24 ± 0.3
298.15 K	1072.53 ± 0.29
313.15 K	1054.92 ± 0.27
328.15 K	1037.26 ± 0.26
338.15 K	1025.42 ± 0.25
348.15 K	1013.53 ± 0.24
358.15 K	1001.6 ± 0.23
